IC50 data for 45 compounds are collected here from patent US20230135635A1, “INHIBITORS OF ULK1/2 AND METHODS OF USING SAME” (SALK INSTITUTE FOR BIOLOGICAL STUDIES, priority 2020, published 2023).

Each structure is given as a SMILES string. pIC50: −log10 of the molar value.

In one assay the target is T1, recombinant human ULK1 protein (1-649) (Homo sapiens, UniProt O75385).
T1 construct: recombinant human ULK1 protein (1-649, SignalChem #U01-11G); purchased SignalChem U01-11G
T1 sequence (O75385 1-649): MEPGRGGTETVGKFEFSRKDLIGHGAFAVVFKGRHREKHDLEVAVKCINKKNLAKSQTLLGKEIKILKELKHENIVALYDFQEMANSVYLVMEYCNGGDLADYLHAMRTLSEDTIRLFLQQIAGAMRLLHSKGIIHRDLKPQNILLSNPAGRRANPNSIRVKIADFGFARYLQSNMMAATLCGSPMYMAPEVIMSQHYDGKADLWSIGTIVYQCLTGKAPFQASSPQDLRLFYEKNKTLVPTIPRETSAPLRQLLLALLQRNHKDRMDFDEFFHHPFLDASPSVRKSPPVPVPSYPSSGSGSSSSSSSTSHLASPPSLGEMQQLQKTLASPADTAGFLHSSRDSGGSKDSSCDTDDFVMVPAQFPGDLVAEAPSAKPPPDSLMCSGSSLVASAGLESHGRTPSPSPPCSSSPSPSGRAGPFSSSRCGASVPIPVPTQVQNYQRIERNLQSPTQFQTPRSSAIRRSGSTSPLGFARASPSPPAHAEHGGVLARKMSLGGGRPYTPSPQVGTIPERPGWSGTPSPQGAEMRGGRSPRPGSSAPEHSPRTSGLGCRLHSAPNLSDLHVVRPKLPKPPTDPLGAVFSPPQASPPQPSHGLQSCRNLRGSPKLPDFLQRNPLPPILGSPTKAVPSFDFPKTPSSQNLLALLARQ
The assay is described as follows: ULK1 inhibition assay (ADP Glo). It is filed as biochemical. The note with it: Table 1; 25 uM ATP, MBP substrate, one hour. Summed up: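 Recombinant ULK1 (2 ug/mL) phosphorylated myelin basic protein (80 ug/mL) at 25 uM ATP; ADP formed was detected by ADP-Glo after 1 h. Compounds ran in triplicate, 16-dose 3-fold serial dilution from 30 uM, to give IC50.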
(In general: In ADP-Glo the light output rises with the ADP produced.)
As a reminder, the pIC50 is the IC50 on a negative log10 scale, so that one unit is a factor of ten. In the case of `CC(C)(C)OC(=O)NCCC(=O)N1CCc2cc(Nc3ncc(C(F)(F)F)c(NC4CC4)n3)ccc2C1` [Compound A29], the pIC50 is > 9.00.

With `FC(F)(F)c1cnc(Nc2ccc3c(c2)CCN(C2CNC2)C3)nc1NC1CC1` [Compound A52], the pIC50 was > 9.00.

Consider `CNC(=O)c1ccccc1Nc1nc(Nc2ccc3c(c2)CCN(Cc2cccnc2)C3)ncc1Br` [Compound A130, 2-[5-Bromo-2-(2-pyridin-3-ylmethyl-1,2,3,4-tetrahydro-isoquinolin-6-ylamino)-pyrimidin-4-ylamino]-N-methyl-benzamide], for which the pIC50 is < 8.00.

With `FC(F)(F)c1cnc(Nc2ccc3c(c2)CNCC3)nc1NC1CC1` [Compound A16], the pIC50 is > 9.00.

Take `CC(=O)CN1CCc2cc(Nc3ncc(C(F)(F)F)c(NC4CC4)n3)ccc2C1` [Compound A69]: the pIC50 was > 9.00.

`FC(F)(F)c1cnc(Nc2ccc3c(c2)CCN(Cc2ccccc2)C3)nc1NC1CC1` [Compound A8]: the pIC50 was > 9.00.

For `FC(F)(F)c1cnc(Nc2ccc3c(c2)CCN(CCN2CCOCC2)C3)nc1NC1CC1` [Compound A5], the pIC50 was > 9.00.

Take `CNC(=O)c1ccccc1Nc1nc(Nc2ccc3c(c2)CCN(C(=O)CCN)C3)ncc1Br` [Compound A136, 2-{2-[2-(3-Amino-propionyl)-1,2,3,4-tetrahydro-isoquinolin-6-ylamino]-5-bromo-pyrimidin-4-ylamino}-N-methyl-benzamide]: the pIC50 is < 8.00.

As for `N[C@@H](CC(=O)O)C(=O)N1CCc2cc(Nc3ncc(C(F)(F)F)c(NC4CC4)n3)ccc2C1` (racemic) [Compound A66], the pIC50 is > 9.00.

Regarding `NOCC(=O)N1CCc2cc(Nc3ncc(C(F)(F)F)c(NC4CC4)n3)ccc2C1` [Compound A80], the pIC50 was 8.00 to 9.00.

`O=C(NCC(F)(F)F)c1cnc(Nc2ccc3c(c2)CCNC3)nc1NC1CC1` [Compound A38]: the negative-log IC50 (pIC50) is < 8.00.

In the case of `FC(F)(F)c1cnc(Nc2ccc3c(c2)CN(Cc2c[nH]cn2)CC3)nc1NC1CC1` [Compound A105], the pIC50 is 8.00 to 9.00.

For `O=C(N1CCOCC1)N1CCc2cc(Nc3ncc(C(F)(F)F)c(NC4CC4)n3)ccc2C1` [Compound A2], the pIC50 is 8.00 to 9.00.

Consider `CN(C)CCN1CCc2cc(Nc3ncc(C(F)(F)F)c(NC4CC4)n3)ccc2C1` [Compound A44], for which the pIC50 is > 9.00.

As for `CCNC(=O)N1CCc2cc(Nc3ncc(C(F)(F)F)c(NC4CC4)n3)ccc2C1` [Compound A6], the pIC50 is 8.00 to 9.00.

`NCCN1CCc2cc(Nc3ncc(C(F)(F)F)c(NC4CC4)n3)ccc2C1` [Compound A34]: the pIC50 is > 9.00.

Take `CNC(=O)c1ccccc1Nc1nc(Nc2ccc3c(c2)CNCC3)ncc1Br` [Compound A147, 2-[5-Bromo-2-(1,2,3,4-tetrahydro-isoquinolin-7-ylamino)-pyrimidin-4-ylamino]-N-methyl-benzamide]: the negative logarithm of the IC50 (pIC50) was < 8.00.

For `CN1CCN(C(=O)N2CCc3ccc(Nc4ncc(C(F)(F)F)c(NC5CC5)n4)cc3C2)CC1` [Compound A99], the pIC50 was 8.00 to 9.00.

Consider `CNC(=S)Nc1cnc(Nc2ccc3c(c2)CCNC3)nc1NC1CC1` [Compound A24], for which the pIC50 was < 8.00.

Take `CC(C)(C)OC(=O)N1CCc2cc(Nc3ncc(C(=O)O)c(NC4CC4)n3)ccc2C1` [Compound A30]: the pIC50 was < 8.00.

In the case of `Cn1cc(CN2CCc3cc(Nc4ncc(C(F)(F)F)c(NC5CC5)n4)ccc3C2)cn1` [Compound A62], the negative-log IC50 (pIC50) was > 9.00.

With `COCCN1CCc2ccc(Nc3ncc(C(F)(F)F)c(NC4CC4)n3)cc2C1` [Compound A86], the pIC50 was > 9.00.

For the compound `O=C(C1CCN1)N1CCc2cc(Nc3ncc(C(F)(F)F)c(NC4CC4)n3)ccc2C1` (stereo not drawn) [Compound A90], the pIC50 is 8.00 to 9.00.

As to `CCN1CCc2cc(Nc3ncc(C(F)(F)F)c(NC4CC4)n3)ccc2C1` [Compound A60], the pIC50 is 8.00 to 9.00.

Consider `N#CCN1CCc2cc(Nc3ncc(C(F)(F)F)c(NC4CC4)n3)ccc2C1` [Compound A45], for which the pIC50 was > 9.00.

As to `CNC(=O)c1ccccc1Nc1nc(Nc2ccc3c(c2)CCN(CCC(=O)O)C3)ncc1Br` [Compound A141, 3-{6-[5-Bromo-4-(2-methylcarbamoyl-phenylamino)-pyrimidin-2-ylamino]-3,4-dihydro-1H-isoquinolin-2-yl}-propionic acid], the pIC50 was < 8.00.

Staying with this assay, now noted: Table 2.
Take `COC(=O)c1ccccc1Oc1nc(Nc2ccc(N(C)C)cc2)ncc1Br` [Compound B24]: the pIC50 is 6.00 to 7.00.

On to `COC(=O)c1ccccc1Oc1nc(Nc2ccc(O)cc2)ncc1Br` [Compound B36], for which the pIC50 was < 6.00.

For the compound `Oc1nc(Nc2ccc3c(c2)OCO3)ncc1C(F)(F)F` [Compound B53, 2-(Benzo[d][1,3]dioxol-5-ylamino)-5-(trifluoromethyl)pyrimidin-4-ol], the pIC50 is < 6.00.

Regarding `COC(=O)c1ccccc1Oc1nc(Nc2ccc(O)c(O)c2)ncc1Br` [Compound B46], the pIC50 was < 6.00.

In the case of `COC(=O)c1ccccc1Oc1nc(Nc2cc(F)c(OC)c(F)c2)ncc1Br` [Compound B34], the pIC50 is < 6.00.

Take `COC(=O)c1ccccc1Oc1nc(Nc2ccc3occc3c2)ncc1Br` [Compound B35]: the pIC50 is < 6.00.

Consider `COC(=O)c1ccccc1Oc1nc(Nc2cccc(C(F)(F)F)c2)ncc1Br` [Compound B28], for which the pIC50 was < 6.00.

Regarding `COC(=O)c1ccccc1Oc1nc(Nc2ccc(C(N)=O)cc2)ncc1Br` [Compound B41], the pIC50 is < 6.00.

As for `COC(=O)c1ccccc1Oc1nc(Nc2ccc3[nH]ccc3c2)ncc1Br` [Compound B31], the pIC50 is < 6.00.

Consider `COC(=O)c1ccccc1Oc1nc(Nc2cccc(OC(F)F)c2)ncc1Br` [Compound B29], for which the pIC50 is < 6.00.

Still in this assay, the particulars now being: Table 3.
On to `NCc1ccc(Nc2ncc(C(F)(F)F)c(NC3CC3)n2)cc1` [Compound D3], for which the pIC50 is > 8.30.

For the compound `COc1cc(Nc2ncc(Br)c(Nc3ccccc3COC(=O)N3CCOCC3)n2)cc(OC)c1OC` [Compound C21], the pIC50 is < 7.00.

Take `COc1cc(Nc2ncc(Br)c(Nc3ccccc3C(=O)O)n2)cc(OC)c1OC` [Compound E2]: the negative logarithm of the IC50 (pIC50) was > 8.30.

For `COc1cc(Nc2ncc(Br)c(Nc3ccccc3C(=O)NCC(F)(F)F)n2)cc(OC)c1OC` [Compound E23, 2-((5-Bromo-2-((3,4,5-trimethoxyphenyl)amino)pyrimidin-4-yl)amino)-N-(2,2,2-trifluoroethyl)benzamide], the negative logarithm of the IC50 (pIC50) was 7.00 to 8.30.

Take `O=c1[nH]c2ccc(Nc3ncc(C(F)(F)F)c(NC4CC4)n3)cc2[nH]1` [Compound D1]: the pIC50 was 7.00 to 8.30.

For `COc1cccc(Nc2ncc(Br)c(Nc3ccccc3CO)n2)c1` [Compound C6], the negative-log IC50 (pIC50) was > 8.30.

As to `COc1cc(Nc2ncc(Br)c(Nc3ccccc3SC)n2)cc(OC)c1OC` [Compound E3], the pIC50 was 7.00 to 8.30.

With `CNC(=O)c1cccc(Nc2nc(Nc3cc(OC)c(OC)c(OC)c3)ncc2Br)c1` [Compound E26, 3-((5-Bromo-2-((3,4,5-trimethoxyphenyl)amino)pyrimidin-4-yl)amino)-N-methylbenzamide], the pIC50 is < 7.00.

For the compound `COc1cc(Nc2ncc(Br)c(Nc3ccc(NC(=O)C4(C(=O)Nc5ccc(F)cc5)CC4)cc3F)n2)cc(OC)c1OC` [Compound E28, N-(4-((5-Bromo-2-((3,4,5-trimethoxyphenyl)amino)pyrimidin-4-yl)amino)-3-fluorophenyl)-N-(4-fluorophenyl)cyclopropane-1,1-dicarboxamide], the pIC50 is < 7.00.
